Assay results published in ChEMBL document CHEMBL2034890, “Polyhydroxylated macrolides from Seimatosporium discosioides and their effects on the activation of peroxisome proliferator-activated receptor gamma” (J Nat Prod, 2012).
Calls of active or inactive are those of the source. No cut-off for these calls is given here.

Key:
Type in all cases: functional, cell-based
[1] = molecular target: T1, Peroxisome proliferator-activated receptor alpha (Homo sapiens) (UniProt Q07869); assay: Agonist activity at human recombinant PPARalpha expressed in CHO cells cotransfected with pGL3-PPRE3-TK-luc reporter assessed as beta-galactosidase activity at 20 uM after 24 hrs by luciferase based transactivation assay
T1 sequence (whole entry): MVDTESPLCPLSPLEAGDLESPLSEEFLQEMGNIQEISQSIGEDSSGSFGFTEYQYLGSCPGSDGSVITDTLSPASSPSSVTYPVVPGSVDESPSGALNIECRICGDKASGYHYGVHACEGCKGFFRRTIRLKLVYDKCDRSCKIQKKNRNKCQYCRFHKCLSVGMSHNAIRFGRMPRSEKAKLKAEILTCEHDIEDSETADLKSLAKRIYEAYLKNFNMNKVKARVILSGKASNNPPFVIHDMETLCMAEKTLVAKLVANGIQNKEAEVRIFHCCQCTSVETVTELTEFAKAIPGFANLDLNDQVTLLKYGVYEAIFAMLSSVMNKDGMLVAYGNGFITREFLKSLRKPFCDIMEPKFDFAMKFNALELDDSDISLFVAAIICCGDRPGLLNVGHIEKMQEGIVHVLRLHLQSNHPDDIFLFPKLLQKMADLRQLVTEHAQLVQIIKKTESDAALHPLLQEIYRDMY

[2] = molecular target: T2, Peroxisome proliferator-activated receptor delta (Homo sapiens) (UniProt Q03181); assay: Agonist activity at human recombinant PPARbeta expressed in CHO cells cotransfected with pGL3-PPRE3-TK-luc reporter assessed as beta-galactosidase activity at 20 uM after 24 hrs by luciferase based transactivation assay
T2 sequence (whole entry): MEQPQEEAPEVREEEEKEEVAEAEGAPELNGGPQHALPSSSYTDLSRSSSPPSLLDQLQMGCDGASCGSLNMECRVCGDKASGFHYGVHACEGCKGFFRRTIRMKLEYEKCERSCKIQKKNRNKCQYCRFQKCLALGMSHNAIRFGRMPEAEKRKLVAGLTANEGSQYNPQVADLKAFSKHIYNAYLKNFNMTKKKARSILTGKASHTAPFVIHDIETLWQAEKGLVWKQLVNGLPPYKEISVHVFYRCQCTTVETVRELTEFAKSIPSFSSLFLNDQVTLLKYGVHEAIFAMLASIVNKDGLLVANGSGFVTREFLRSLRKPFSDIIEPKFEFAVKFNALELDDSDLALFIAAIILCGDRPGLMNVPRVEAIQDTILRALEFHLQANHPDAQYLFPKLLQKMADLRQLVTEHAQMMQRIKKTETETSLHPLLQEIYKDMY

[3] = molecular target: T3, Peroxisome proliferator-activated receptor gamma (Homo sapiens) (UniProt P37231); assay: (§1) Agonist activity at human recombinant PPARgamma expressed in CHO cells cotransfected with pGL3-PPRE3-TK-luc reporter assessed as beta-galactosidase activity at after 24 hrs by luciferase based transactivation assay
T3 sequence (whole entry): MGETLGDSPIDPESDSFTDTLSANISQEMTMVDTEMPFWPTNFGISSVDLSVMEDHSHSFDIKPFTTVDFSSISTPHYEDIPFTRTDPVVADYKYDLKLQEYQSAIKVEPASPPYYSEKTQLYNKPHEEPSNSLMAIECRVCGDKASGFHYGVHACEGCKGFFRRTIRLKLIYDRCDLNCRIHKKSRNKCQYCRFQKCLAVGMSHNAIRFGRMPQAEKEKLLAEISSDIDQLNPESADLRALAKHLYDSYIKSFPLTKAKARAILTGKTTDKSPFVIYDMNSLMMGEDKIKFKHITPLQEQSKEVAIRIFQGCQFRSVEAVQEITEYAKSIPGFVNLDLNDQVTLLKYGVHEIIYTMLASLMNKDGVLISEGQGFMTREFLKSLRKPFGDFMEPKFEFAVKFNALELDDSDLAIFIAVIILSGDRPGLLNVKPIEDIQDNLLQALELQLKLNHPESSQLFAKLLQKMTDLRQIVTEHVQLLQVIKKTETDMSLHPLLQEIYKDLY

[4] = molecular target: T4, Peroxisome proliferator-activated receptor gamma (Homo sapiens, UniProt P37231); assay: as §1
T4 sequence (P37231 whole entry): T3 sequence (whole entry)

[5] = molecular target: T3, Peroxisome proliferator-activated receptor gamma (Homo sapiens); assay: Agonist activity at PPARgamma in human HepG2 cells assessed as up-regulation of PPARgamma mRNA expression by RT-PCR analysis
[6] = molecular target: T3, Peroxisome proliferator-activated receptor gamma (Homo sapiens); assay: Agonist activity at PPARgamma in human HepG2 cells assessed as downregulation of glucose-6-phosphatase mRNA at 0.5 to 12.5 uM by RT-PCR analysis
[7] = molecular target: T3, Peroxisome proliferator-activated receptor gamma (Homo sapiens); assay: Agonist activity at PPARgamma in human HepG2 cells assessed as downregulation of phosphoenolpyruvate carboxykinase mRNA at 0.5 to 12.5 uM by RT-PCR analysis
[8] = molecular target: T3, Peroxisome proliferator-activated receptor gamma (Homo sapiens); assay: Agonist activity at PPARgamma in human HepG2 cells assessed as change in stearoyl CoA desaturase 1 mRNA at 0.5 to 12.5 uM by RT-PCR analysis
[9] = molecular target: T3, Peroxisome proliferator-activated receptor gamma (Homo sapiens); assay: Agonist activity at PPARgamma in human HepG2 cells assessed as up-regulation of PPARgamma mRNA at 0.5 to 12.5 uM by RT-PCR analysis relative to control

Row | Compound | Activity [1] | Activity [2] | Activity [3] | EC50 [4] | Activity [5] | Activity [6] | Activity [7] | Activity [8] | fold change (FC) [9]
1 | COc1cc(O)c2c(c1)C(=O)c1cocc1C2=O | inactive | inactive | inactive | – | – | – | – | – | –
2 | COc1cc(O)c2c(c1)[C@@H](O)[C@@]1(O)COC[C@H]1C2=O | inactive | inactive | inactive | – | – | – | – | – | –
3 | COc1cc(O)c2c(c1)[C@@H](O)[C@@]13CO[C@@H](O)[C@@]1(O3)C2=O | inactive | inactive | inactive | – | – | – | – | – | –

Results, then the compound that gave them:

Row | Activity [1] | Activity [2] | Activity [3] | EC50 [4] | Activity [5] | Activity [6] | Activity [7] | Activity [8] | fold change (FC) [9] | Compound
4 | inactive | inactive | – | 1.15 µM | Dose-dependent effect | Active | Active | inactive | 2 | CCCCCCCCC[C@H]1C[C@@H](O)[C@H](O)/C=C/[C@H](O)CC(=O)O1 [SEIMATOPOLIDE A]
5 | inactive | inactive | – | 11.1 µM | – | – | – | – | – | CCCCCCCCC[C@H]1CC[C@H](O)/C=C/[C@H](O)CC(=O)O1 [SEIMATOPOLIDE B]
